Experimental data from US8609661B2, “Pyrimido-pyrrolo-quinoxalinedione inhibitors of cystic fibrosis transmembrane conductance regulator protein and uses therefor” (The Regents of the University of California, priority 2009, dated 2013).
Like-named read-outs stand apart in the source and are kept apart here.

Target: T1, human wildtype CFTR (Homo sapiens, UniProt P13569)
T1 construct: expressed in transfected cells; host or cells: Fischer rat thyroid (FRT) cells
Assay: Fluorescence platereader assay of CFTR-mediated iodide influx (YFP quenching) in FRT cells
Format: cell-based
Conditions: for inhibition at 5 µM / inhibition at 25 µM: FRT; for IC50: apparent IC50 from concentration-inhibition data, fluorescence platereader assay
Procedure: A. Cell lines and compounds—Fischer rat thyroid (FRT) cells co-expressing human wildtype CFTR and the halide indicator YFP-H148Q/1152L were generated as described (see, e.g., Ma et al., J. Clin. Invest. 110:1651-1658 (2002)). Cells were plated in 96-well black-walled microplates (Corning Costar) at a density of 20,000 cells per well in Coon's modified F12 medium supplemented with 5% fetal calf serum, 2 mM L-glutamine, 100 U/mL penicillin, and 100 μg/ml streptomycin. Assays were performed at 48 h after plating the cells when the cells were just confluent. For some experiments, measurements were made using T84 human intestinal epithelial cells and for other experiments, measurements were obtained using primary cultures of human bronchial epithelial cells, which were obtained and grown essentially as previously described (see, e.g., 3 and 27).
B. Compound Screening—Assays were performed using an automated screening platform (Beckman) equipped with FLUOStar fluorescence platereaders (BMG Lab Technologies, Offenburg, Germany) as described (see Ma et al., supra). Each well of a 96-well plate containing FRT cells was washed 3 times in PBS (300 μL/wash), leaving 50 μL PBS. […] After 15 min, 96-well plates were transferred to a plate reader for fluorescence assay. Each well was assayed individually for CFTR-mediated iodide influx by recording fluorescence continuously (200 ms per point) for 2 s (baseline) and then for 10 s after rapid addition of 160 μL of isosmolar PBS in which 137 mM chloride was replaced by iodide. The initial rate of iodide influx was computed from fluorescence data by non-linear regression.
Collections of synthetic and natural compounds were screened according to the screening procedures described in Example 2. A cell-based fluorescence assay was used in which CFTR inhibitors were identified by reduced iodide influx in FRT cells co-expressing human CFTR and a YFP halide sensor. CFTR was maximally activated by a mixture of agonists having different activating mechanisms. Inhibition of iodide influx was observed as reduced YFP fluorescence quenching in response to rapid iodide addition to each well of 96-well plates. […]

[1] = read-out: % inhibition at 25/5 μM (5 μM value), Table 1, 5 μM compound
[2] = read-out: % inhibition at 25/5 μM (25 μM value), Table 1, 25 μM compound
[3] = Table 2, screening, 5 μM, read-out: % Inhibition at 5 μM
[4] = Table 2, screening, 25 μM, read-out: % Inhibition at 25 μM

T1 sequence (P13569 whole entry): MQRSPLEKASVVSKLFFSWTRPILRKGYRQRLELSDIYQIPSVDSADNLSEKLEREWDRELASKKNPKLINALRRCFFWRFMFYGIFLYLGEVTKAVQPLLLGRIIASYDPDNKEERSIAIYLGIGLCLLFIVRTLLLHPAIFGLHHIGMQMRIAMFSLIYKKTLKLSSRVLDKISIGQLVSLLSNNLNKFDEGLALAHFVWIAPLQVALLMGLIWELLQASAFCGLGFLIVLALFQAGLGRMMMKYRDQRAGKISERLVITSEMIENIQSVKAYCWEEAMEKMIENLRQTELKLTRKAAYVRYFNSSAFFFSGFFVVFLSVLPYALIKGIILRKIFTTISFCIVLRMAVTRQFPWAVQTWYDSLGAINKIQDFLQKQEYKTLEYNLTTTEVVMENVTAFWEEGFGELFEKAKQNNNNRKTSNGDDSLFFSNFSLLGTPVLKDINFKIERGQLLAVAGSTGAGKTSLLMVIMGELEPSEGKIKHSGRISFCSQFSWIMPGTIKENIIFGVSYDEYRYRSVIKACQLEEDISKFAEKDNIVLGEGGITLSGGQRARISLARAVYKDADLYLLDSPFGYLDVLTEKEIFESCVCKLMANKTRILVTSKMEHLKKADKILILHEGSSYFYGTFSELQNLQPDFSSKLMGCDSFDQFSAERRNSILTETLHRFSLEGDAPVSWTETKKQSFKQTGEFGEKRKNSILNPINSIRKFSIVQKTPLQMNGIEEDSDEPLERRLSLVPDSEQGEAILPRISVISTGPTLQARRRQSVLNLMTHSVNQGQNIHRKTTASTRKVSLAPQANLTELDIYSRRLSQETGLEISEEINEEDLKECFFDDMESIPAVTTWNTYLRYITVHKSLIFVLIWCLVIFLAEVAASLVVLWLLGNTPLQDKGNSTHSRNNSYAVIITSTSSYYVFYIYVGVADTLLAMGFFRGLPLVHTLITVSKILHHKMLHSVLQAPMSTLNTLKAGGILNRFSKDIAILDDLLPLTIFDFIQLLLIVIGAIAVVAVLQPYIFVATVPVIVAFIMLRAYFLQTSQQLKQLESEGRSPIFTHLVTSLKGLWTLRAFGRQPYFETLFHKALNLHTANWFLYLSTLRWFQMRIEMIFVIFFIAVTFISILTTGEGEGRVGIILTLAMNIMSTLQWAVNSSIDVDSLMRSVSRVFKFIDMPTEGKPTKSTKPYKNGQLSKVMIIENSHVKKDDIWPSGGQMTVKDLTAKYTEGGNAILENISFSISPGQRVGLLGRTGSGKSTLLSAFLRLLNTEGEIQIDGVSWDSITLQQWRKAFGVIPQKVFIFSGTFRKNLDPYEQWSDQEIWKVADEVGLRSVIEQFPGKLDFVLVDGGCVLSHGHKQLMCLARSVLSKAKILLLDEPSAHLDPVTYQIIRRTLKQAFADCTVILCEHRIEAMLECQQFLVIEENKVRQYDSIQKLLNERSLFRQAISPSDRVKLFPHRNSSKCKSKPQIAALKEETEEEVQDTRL

Row | inhibition at 5 µM [1] [%] | inhibition at 25 µM [2] [%] | inhibition at 5 µM [3] [%] | inhibition at 25 µM [4] [%] | IC50 [µM] | SMILES
1 | 61 | 81 | 61 | 81 | 2 | Cn1c(=O)c2c(-c3ccccc3)n3c(c2n(C)c1=O)C(c1ccccc1F)Nc1ccccc1-3 (stereo not drawn) [PPQ-205, 7,9-Dimethyl-11-phenyl-6-(2-fluorophenyl)-5,6-dihydro-pyrimido[4′,5′-3,4]pyrrolo[1,2-a]quinoxaline-8,10-(7H,9H)-dione]
2 | – | – | 31 | 75 | – | Cc1ccc(C2Nc3ccccc3-n3c(-c4ccc(Cl)cc4)c4c(=O)n(C)c(=O)n(C)c4c32)o1 (stereo not drawn) [PPQ-111, 7,9-Dimethyl-11-(4-cholophenyl)-6-(5-methylfuran-2-yl)-5,6-dihydro-pyrimido[4′,5′-3,4]pyrrolo[1,2-a]quinoxaline-8,10-(7H,9H)-dione]
3 | – | – | 36 | 92 | – | Cc1cc2c(cc1C)-n1c(-c3ccccc3)c3c(=O)n(C)c(=O)n(C)c3c1C(c1cccc(O)c1)N2 (stereo not drawn) [PPQ-223, 2,3,7,9-Tetramethyl-11-phenyl-6-(3-hydroxyphenyl)-5,6-dihydro-pyrimido[4′,5′-3,4]pyrrolo[1,2-a]quinoxaline-8,10-(7H,9H)-dione]
4 | – | – | 78 | 78 | 1.5 | Cc1ccc(C2Nc3cc(C)c(C)cc3-n3c(-c4ccccc4F)c4c(=O)n(C)c(=O)n(C)c4c32)o1 (stereo not drawn) [PPQ-105, 2,3,7,9-Tetramethyl-11-(2-fluorophenyl)-6-(5-methylfuran-2-yl)-5,6-dihydro-pyrimido[4′,5′-3,4]pyrrolo[1,2-a]quinoxaline-8,10-(7H,9H)-dione]
5 | – | – | 30 | 83 | – | Cc1cccc(-c2c3c(=O)n(C)c(=O)n(C)c3c3n2-c2ccccc2NC3c2cccc(O)c2)c1 (stereo not drawn) [PPQ-228, 7,9-Dimethyl-11-(3-methylphenyl)-6-(3-hydroxyphenyl)-5,6-dihydro-pyrimido[4′,5′-3,4]pyrrolo[1,2-a]quinoxaline-8,10-(7H,9H)-dione]
6 | – | – | 14 | 61 | – | Cc1cc2c(cc1C)-n1c(-c3ccccc3)c3c(=O)n(C)c(=O)n(C)c3c1C(c1cccs1)N2 (stereo not drawn) [PPQ-115, 2,3,7,9-Tetramethyl-11-phenyl-6-(thienyl-2-yl)-5,6-dihydro-pyrimido[4′,5′-3,4]pyrrolo[1,2-a]quinoxaline-8,10-(7H,9H)-dione]
7 | – | – | 57 | 90 | – | Cc1ccccc1-c1c2c(=O)n(C)c(=O)n(C)c2c2n1-c1ccccc1NC2c1cccc(F)c1 (stereo not drawn) [PPQ-229, 7,9-Dimethyl-11-(2-methylphenyl)-6-(3-fluorophenyl)-5,6-dihydro-pyrimido[4′,5′-3,4]pyrrolo[1,2-a]quinoxaline-8,10-(7H,9H)-dione]
8 | 63 | 86 | 63 | 86 | 1.7 | COc1cccc(C2Nc3ccccc3-n3c(-c4ccccc4)c4c(=O)n(C)c(=O)n(C)c4c32)c1 (stereo not drawn) [PPQ-204, 7,9-Dimethyl-11-phenyl-6-(3-methoxyphenyl)-5,6-dihydro-pyrimido[4′,5′-3,4]pyrrolo[1,2-a]quinoxaline-8,10-(7H,9H)-dione]
9 | 70 | – | 70 | > 95 | 2.5 | Cn1c(=O)c2c(-c3ccccc3F)n3c(c2n(C)c1=O)C(c1cccc(Cl)c1)Nc1ccccc1-3 (stereo not drawn) [PPQ-214, 7,9-Dimethyl-11-(2-fluorophenyl)-6-(3-chlorophenyl)-5,6-dihydro-pyrimido[4′,5′-3,4]pyrrolo[1,2-a]quinoxaline-8,10-(7H,9H)-dione]
10 | – | – | 21 | 57 | – | Cc1ccc(-c2c3c(=O)n(C)c(=O)n(C)c3c3n2-c2ccccc2NC3c2ccc(C)o2)cc1 (stereo not drawn) [PPQ-110, 7,9-Dimethyl-11-(4-methylphenyl)-6-(5-methylfuran-2-yl)-5,6-dihydro-pyrimido[4′,5′-3,4]pyrrolo[1,2-a]quinoxaline-8,10-(7H,9H)-dione]
11 | – | – | 24 | 82 | – | Cc1cc2c(cc1C)-n1c(-c3ccccc3)c3c(=O)n(C)c(=O)n(C)c3c1C(c1ccc(O)c(O)c1)N2 (stereo not drawn) [PPQ-224, 2,3,7,9-Tetramethyl-11-phenyl-6-(3,4-dihydroxyphenyl)-5,6-dihydro-pyrimido[4′,5′-3,4]pyrrolo[1,2-a]quinoxaline-8,10-(7H,9H)-dione]
12 | – | – | 14 | 80 | – | Cc1cc2c(cc1C)-n1c(-c3ccccc3)c3c(=O)n(C)c(=O)n(C)c3c1C(c1cccc(O)c1O)N2 (stereo not drawn) [PPQ-236, 2,3,7,9-Tetramethyl-11-phenyl-6-(2,3-dihydroxyphenyl)-5,6-dihydro-pyrimido[4′,5′-3,4]pyrrolo[1,2-a]quinoxaline-8,10-(7H,9H)-dione]
13 | – | – | 28 | 58 | – | Cn1c(=O)c2c(-c3ccccc3)n3c(c2n(C)c1=O)C(c1ccc2c(c1)OCO2)Nc1ccccc1-3 (stereo not drawn) [PPQ-301, 7,9-Dimethyl-11-phenyl-6-(1,3-benzodioxol-5-yl)-5,6-dihydro-pyrimido[4′,5′-3,4]pyrrolo[1,2-a]quinoxaline-8,10-(7H,9H)-dione]
14 | – | – | 12 | 68 | – | COc1ccc(-c2c3c(=O)n(C)c(=O)n(C)c3c3n2-c2ccccc2NC3c2ccc(C)o2)cc1 (stereo not drawn) [PPQ-109, 7,9-Dimethyl-11-(4-methoxyphenyl)-6-(5-methylfuran-2-yl)-5,6-dihydro-pyrimido[4′,5′-3,4]pyrrolo[1,2-a]quinoxaline-8,10-(7H,9H)-dione]
15 | – | – | 41 | 94 | 5 | Cc1ccccc1-c1c2c(=O)n(C)c(=O)n(C)c2c2n1-c1ccccc1NC2c1ccccc1 (stereo not drawn) [PPQ-218, 7,9-Dimethyl-11-(2-methylphenyl)-6-phenyl-5,6-dihydro-pyrimido[4′,5′-3,4]pyrrolo[1,2-a]quinoxaline-8,10-(7H,9H)-dione]
16 | – | – | 19 | 67 | – | Cc1ccccc1-c1c2c(=O)n(C)c(=O)n(C)c2c2n1-c1ccccc1NC2c1cccs1 (stereo not drawn) [PPQ-117, 7,9-Dimethyl-11-(2-methylphenyl)-6-(thienyl-2-yl)-5,6-dihydro-pyrimido[4′,5′-3,4]pyrrolo[1,2-a]quinoxaline-8,10-(7H,9H)-dione]
17 | – | – | 67 | 67 | – | Cc1cccc(C2Nc3ccccc3-n3c(-c4ccccc4)c4c(=O)n(C)c(=O)n(C)c4c32)c1 (stereo not drawn) [PPQ-232, 7,9-Dimethyl-11-phenyl-6-(3-methylphenyl)-5,6-dihydro-pyrimido[4′,5′-3,4]pyrrolo[1,2-a]quinoxaline-8,10-(7H,9H)-dione]
18 | – | – | 13 | 62 | – | COc1cc(C2Nc3ccccc3-n3c(-c4ccccc4F)c4c(=O)n(C)c(=O)n(C)c4c32)ccc1O (stereo not drawn) [PPQ-251, 7,9-Dimethyl-11-(2-fluorophenyl)-6-(3-methoxy-4-hydroxyphenyl)-5,6-dihydro-pyrimido[4′,5′-3,4]pyrrolo[1,2-a]quinoxaline-8,10-(7H,9H )-dione]

The next lines start with the compound.

Row | SMILES | inhibition at 5 µM [1] [%] | inhibition at 25 µM [2] [%] | inhibition at 5 µM [3] [%] | inhibition at 25 µM [4] [%] | IC50 [µM]
19 | C=CCc1cccc(C2Nc3ccccc3-n3c(-c4ccccc4)c4c(=O)n(C)c(=O)n(C)c4c32)c1O (stereo not drawn) | – | – | < 10 | 31 | –
20 | Cc1cc2c(cc1C)-n1c(-c3ccccc3F)c3c(=O)n(C)c(=O)n(C)c3c1C(c1ccccc1F)N2 (stereo not drawn) | – | – | 23 | 35 | –
21 | COc1cc(O)ccc1C1Nc2ccccc2-n2c(-c3ccccc3F)c3c(=O)n(C)c(=O)n(C)c3c21 (stereo not drawn) | – | – | < 10 | 41 | –
22 | Cn1c(=O)c2c(-c3ccccc3F)n3c(c2n(C)c1=O)C(c1ccc(O)cc1O)Nc1ccccc1-3 (stereo not drawn) | – | – | < 10 | 36 | –
23 | COc1ccc(-c2c3c(=O)n(C)c(=O)n(C)c3c3n2-c2ccccc2NC3c2cccs2)cc1 (stereo not drawn) | – | – | < 10 | 34 | –
24 | COc1ccc(-c2c3c(=O)n(C)c(=O)n(C)c3c3n2-c2ccccc2NC3c2cccc(O)c2)cc1 (stereo not drawn) | – | – | < 10 | 33 | –
25 | Cc1ccc(-c2c3c(=O)n(C)c(=O)n(C)c3c3n2-c2ccccc2NC3c2cccc(F)c2F)cc1 (stereo not drawn) | – | – | 27 | 31 | –
26 | COc1ccc(C2Nc3ccccc3-n3c(-c4ccc(Cl)cc4)c4c(=O)n(C)c(=O)n(C)c4c32)cc1 (stereo not drawn) | – | – | < 10 | 31 | –
27 | Cc1ccc(-c2c3c(=O)n(C)c(=O)n(C)c3c3n2-c2ccccc2NC3c2cccs2)cc1 (stereo not drawn) | – | – | < 10 | 35 | –
28 | Cc1ccccc1-c1c2c(=O)n(C)c(=O)n(C)c2c2n1-c1ccccc1NC2c1ccc(C#N)cc1 (stereo not drawn) | – | – | < 10 | 45 | –
